This note sets out measurements from article PMC5104457, “ATP-Competitive MLKL Binders Have No Functional Impact on Necroptosis” (PLoS ONE, 2016).

The IC50 is the concentration at which inhibition is half-maximal. For orientation: Kd means a measure of binding affinity in units of concentration. In general, EC50 refers to the concentration needed to bring the measured effect to its halfway point. Lower therefore signals higher potency in that assay.

One data set concerns the target T1, kinase domain of RIPK1 (Homo sapiens, UniProt Q13546).
T1 construct: The kinase domain of RIPK1; made in house
T1 sequence (Q13546 17-289 limits assumed): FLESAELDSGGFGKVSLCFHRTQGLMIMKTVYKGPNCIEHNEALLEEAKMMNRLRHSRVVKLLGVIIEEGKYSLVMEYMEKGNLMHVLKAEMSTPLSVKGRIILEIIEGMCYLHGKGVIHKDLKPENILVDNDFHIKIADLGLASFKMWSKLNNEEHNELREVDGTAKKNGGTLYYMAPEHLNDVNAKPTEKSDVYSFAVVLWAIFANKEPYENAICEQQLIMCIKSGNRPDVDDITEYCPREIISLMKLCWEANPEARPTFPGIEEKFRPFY
Briefly: Differential scanning fluorimetry (thermal shift), RIPK1 kinase domain. It counts as binding. Conditions: 10 μM compound, 1 μM protein, average of triplicates. On the procedure: (§1) To measure the thermal stabilization of the proteins upon compound binding we employed differential scanning fluorimetry (DSF). The kinase domain of RIPK1 and the N-terminal domain HSP90α were expressed and purified as previously described. The pseudokinase MLKL-1, RIPK1 and Hsp90 were melted at 1μM final concentrations in 25mM HEPES pH 8.0, 250mM NaCl and 2.5mM DTT. Compounds were added to a final concentration of 10 μ M with a final DMSO concentration of 5%. The complexes were incubated on ice for 30 minutes. Protein Thermal Shift dye (Life Technologies) was added to 1X. The fluorescence intensities were measured using a Quantstudio real-time PCR system (Life Technologies) with excitation at 470 nm and emission at 586 nm. The samples, measured in triplicate, were heated from 25 to 85°C with a heating rate of […].

Another data set deals with T2, pseudokinase MLKL-1 (Homo sapiens, UniProt Q8NB16).
T2 construct: sub-cloning residues 191 to 471 of the pseudokinase domain of human MLKL cDNA; His6 (thrombin cleavable) (N); made in house; host or cells: Escherichia coli BL21 (DE3)
T2 sequence (Q8NB16 191-471): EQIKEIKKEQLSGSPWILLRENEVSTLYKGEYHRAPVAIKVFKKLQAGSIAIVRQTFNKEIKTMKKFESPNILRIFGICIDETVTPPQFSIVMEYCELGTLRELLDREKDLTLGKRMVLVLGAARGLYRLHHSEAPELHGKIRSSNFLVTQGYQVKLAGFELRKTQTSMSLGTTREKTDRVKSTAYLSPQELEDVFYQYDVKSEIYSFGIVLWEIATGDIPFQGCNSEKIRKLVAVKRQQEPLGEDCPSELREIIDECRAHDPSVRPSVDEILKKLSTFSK
Briefly: Differential scanning fluorimetry (thermal shift), MLKL pseudokinase domain. To be noted: 10 μM compound, 1 μM protein, average of triplicates; read-out: MLKL Pseudo-kinase thermal shift at 10 μM. It counts as binding.
Description: MLKL-1 was constructed by sub-cloning residues 191 to 471 of the pseudokinase domain of human MLKL cDNA into a pET15b vector with a thrombin cleavable N-terminal six histidine fusion tag (His-MLKL-1). MLKL-2 had the same protein boundaries and fusion tag system as MLKL-1 but the dual mutations E366A and K367A were introduced using site directed mutagenesis and was expressed in the same vector (His-MLKL-2).
as §1
A general note: In DSF a fluorescence change marks the thermal transition of the protein.

Data set [1] concerns RIPK3 phosphorylation of MLKL in 293T cells. As to the kind of experiment: MLKL phosphorylation assay (MSD), RIPK3-dependent phospho Ser358. It counts as cell-based, human. Conditions: 293T cells with GFP-MLKL and RIPK3-mCherry, 30 min compound, normalized to DMSO. As for the experimental part: The cDNA clones of human MLKL (RC213152) and human RIPK3 (RC209549) were purchased from Origene. To generate GFP-MLKL and RIPK3-mCherry, coding sequences of the corresponding cDNA sequences were PCR amplified and cloned into Biogen’s mammalian expression vector.
293T cells grown in 10 cm plates were transfected with GFP-MLKL alone or both GFP-MLKL and RIPK3-mCherry plasmids. After 24 hours, cells were harvested and replated into poly D lysine coated 96W plate with 20,000 cells/ml. Four hours later, cells were treated with MLKL compounds for 30 min and incubated at 37°C. Thirty minutes later, the media was removed and cells were lysed in 150μl of Cell lysis buffer (Cell Signaling, MA) containing both protease and phosphatase inhibitors. The lysates were transferred to 96 well MSD plates (Meso Scale Discovery, MD) that were precoated with anti-mouse MLKL antibody H00197259-M02, 3B2, Novus Biologicals, CO), and incubated overnight at 4°C. After washing the plates three times with 1x MSD wash buffer (50mM TRIS-HCl, 150mM NaCl, 0.02% Tween 20, pH7.5), 100 μl of 0.5μg/ml of rabbit-anti-MLKL phospho Ser358 (Abcam AB187091) was added to each well. The plates were incubated for 2 hours at room temperature. After three washes with MSD wash buffer, 100 μ l of 0.5ug/ml of SULFO-tag labeled anti-rabbit IgG was added to each well and incubated for 1 hour at room temperature. After three washes, 1x Read bufferT (Meso Scale Discovery, MD) was added and the electrochemiluminescence (ECL) was measured with a MSD Sector Imager 600.

Data set [2] concerns FADD (-/-) Jurkat cells. Briefly: Necroptosis assay: rescue from TNF-α induced cell death. It counts as cell-based. To be noted: FADD deficient Jurkat cells; for IC50: TNF-α 15 ng/ml overnight, average of duplicates, read-out: Necroptosis cell IC50. On the procedure: Necroptosis assays were performed at Charles River Laboratories (United Kingdom) and at Biogen. […] On the day of the experiment, cells were counted using Nexcelom Bioscience Cell Meter Vision and pelleted by centrifugation. Cell pellets were resuspended in fresh medium at 500,000 cells per mL and transferred to assay-ready compound plates prepared in 384-well white TC plates (Greiner #781080) at 20μl cells per well. Cells and compound were incubated at room temperature for 30 minutes followed by +/- stimulation with 15ng/ml TNF-α (Cell signalling Technologies #8902LF) overnight at 37°C. In the morning, plates were equilibrated to room temperature for 30 minutes and 25μl of CellTiter-Glow (CellTiter-Glo 2.0 Assay, Promega # G9243) diluted 1:4 in PBS was added to each well and allowed to incubate for 10 minutes at room temperature. Luminescence was read on an Envision plate reader (Perkin Elmer).
TNF-α added to these cells induces necroptosis or cell death. The term “Rescue” refers to the ability of a compound to prevent loss of cell viability in the presence of TNF. Definitions of the presence or absence of compound or TNF stimulation in the wells that were used to calculate degree of rescue or viability is defined in Table 1.
100% percent rescue is defined as the value of the “no TNF” wells minus the value of wells treated with “TNF”.
Percent Rescue is then the ratio of the intensity value of the experimental “well” minus the value of “TNF” treated wells divided by the overall difference between the value of “no TNF” treated wells and the value of “TNF” treated wells.
%rescue=((well - TNF)/(no TNF - TNF))x100

The target in another data set is T3, RIPK3 kinase domain (Homo sapiens, UniProt Q9Y572).
T3 construct: purchased DiscoverX
Briefly: ATP-competitive probe displacement assay, RIPK3. It counts as binding. As for the experimental part:
(§2) Compound binding constants (KDs) were determined at DiscoverX using their KINOMEscan assay platform. This competition binding assay was previously described in Karaman et al. (2008)[18]. Briefly, full length MLKL was expressed in HEK-293 cells as a fusion with an NFκB DNA binding domain and subsequently tagged with a qPCR detection amplicon via interaction with NFκB. […] Twenty microliters of binding reactions were carried out in 384-well polypropylene plates for 1 hour at room temperature. Beads were subsequently washed and resuspended in elution buffer for 30 minutes at room temperature with shaking. The concentration of MLKL in the eluates was measured by qPCR and compound binding constants were calculated using a standard dose-response curve.
(§3) A similar approach was used to measure binding affinities for RIPK1 and RIPK3 kinase domains.

The next data set addresses T4, RIPK1 kinase domain (Homo sapiens, UniProt Q13546).
T4 construct: purchased DiscoverX
T4 sequence (Q13546 17-289 limits assumed): T1 sequence (Q13546 17-289 limits assumed)
As to the kind of experiment: ATP-competitive probe displacement assay, RIPK1. The data set is classed as binding. To be noted: for Kd: average of duplicates; for weaker potency to RIPK1 relative to MLKL: RIPK1 KD versus MLKL KD. On the procedure: as §2, §3

For another data set, the target named is T5, full length MLKL (Homo sapiens, UniProt Q8NB16).
T5 construct: purchased DiscoverX (KINOMEscan service); host or cells: HEK-293
T5 sequence (Q8NB16 1-471): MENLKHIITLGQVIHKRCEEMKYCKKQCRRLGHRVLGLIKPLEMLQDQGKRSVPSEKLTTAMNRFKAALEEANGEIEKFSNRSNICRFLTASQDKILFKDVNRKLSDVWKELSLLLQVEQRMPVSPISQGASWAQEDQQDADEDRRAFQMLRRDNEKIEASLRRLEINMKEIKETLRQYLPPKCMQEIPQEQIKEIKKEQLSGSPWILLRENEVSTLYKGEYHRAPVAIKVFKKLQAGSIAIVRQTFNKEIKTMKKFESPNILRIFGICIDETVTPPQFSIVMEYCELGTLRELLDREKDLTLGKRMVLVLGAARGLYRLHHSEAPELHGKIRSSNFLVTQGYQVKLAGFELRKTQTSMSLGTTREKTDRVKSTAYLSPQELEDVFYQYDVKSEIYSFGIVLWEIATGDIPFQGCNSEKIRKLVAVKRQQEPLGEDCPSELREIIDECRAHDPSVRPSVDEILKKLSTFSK
Briefly: KINOMEscan ATP-competitive probe displacement (competition binding) assay, MLKL. Conditions: for Kd: average of duplicates. As for the experimental part: as §2, with “This competition binding assay was previously described in Karaman et al. (2008)[18].” left out
as §3

Data set [3] relates to FADD (-/-) Jurkat cells. Briefly: Viability experiment in the absence of TNF. It counts as cell-based. To be noted: FADD deficient Jurkat cells, no TNF, Fig 3F. On the procedure: Necroptosis assays were performed at Charles River Laboratories (United Kingdom) and at Biogen. […] On the day of the experiment, cells were counted using Nexcelom Bioscience Cell Meter Vision and pelleted by centrifugation. Cell pellets were resuspended in fresh medium at 500,000 cells per mL and transferred to assay-ready compound plates prepared in 384-well white TC plates (Greiner #781080) at 20μl cells per well. Cells and compound were incubated at room temperature for 30 minutes followed by +/- stimulation with 15ng/ml TNF-α (Cell signalling Technologies #8902LF) overnight at 37°C. In the morning, plates were equilibrated to room temperature for 30 minutes and 25μl of CellTiter-Glow (CellTiter-Glo 2.0 Assay, Promega # G9243) diluted 1:4 in PBS was added to each well and allowed to incubate for 10 minutes at room temperature. Luminescence was read on an Envision plate reader (Perkin Elmer). Percent viability values are calculated from separate dose response experiments identical to the percent rescue experiment except that no TNF is added to the cells. This assay is intended to identify compounds that not only don’t rescue, but are toxic themselves. 100% Viability is defined as the intensity value of the “no TNF” wells, cell treated with neither compound nor TNF. […]

“Also recorded” adds a separate entry of the source.

T3 sequence (Q9Y572 21-287 limits assumed): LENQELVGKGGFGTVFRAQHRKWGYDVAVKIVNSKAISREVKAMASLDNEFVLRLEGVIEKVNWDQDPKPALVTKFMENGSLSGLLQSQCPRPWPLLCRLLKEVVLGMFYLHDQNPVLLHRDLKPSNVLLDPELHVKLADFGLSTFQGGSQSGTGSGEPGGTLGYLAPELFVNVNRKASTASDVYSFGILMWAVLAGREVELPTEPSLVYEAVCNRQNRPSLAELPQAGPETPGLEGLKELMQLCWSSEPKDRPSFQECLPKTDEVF

For the molecule `C[C@@H](Oc1cc(-c2cnn(C3CCNCC3)c2)cnc1N)c1c(Cl)ccc(F)c1Cl` [Crizontinib, reference compound], the results for the ΔTm at 10 µM at kinase domain of RIPK1 and on pseudokinase MLKL-1 were 0.75 °C and 5.63 °C, respectively. In addition, the “effect on RIPK3-dependent phosphorylation of MLKL (phospho Ser358, in words)” value in data set [1] is given as “does not impact its phosphorylation”. Further, the “rescue of cells from necroptosis (in words)” value in the data set with FADD (-/-) Jurkat cells [2] (dose-response, Fig 3) was “does not rescue cells from necroptosis”. In addition, the IC50 with FADD (-/-) Jurkat cells [2] (Homo sapiens) is above 40 µM.

Consider `CC(C)S(=O)(=O)c1ccc2nccc(Nc3ccc4scnc4c3)c2c1` [GSK872], for which the “effect on RIPK3-dependent phosphorylation of MLKL (phospho Ser358, in words)” value in data set [1] was “completely inhibited; also recorded: inhibits phosphorylation of MLKL”.

Take `COc1nccnc1NS(=O)(=O)c1ccc(NC(=O)/C=C/c2ccc([N+](=O)[O-])s2)cc1` [NSA, Necrosulfonamide, reference compound]: the ΔTm at 10 µM at kinase domain of RIPK1 is 0.15 °C; on pseudokinase MLKL-1, 0.67 °C. For the same molecule, the IC50 in the data set on FADD (-/-) Jurkat cells [2] (Homo sapiens) amounted to 0.2 µM. The “displacement of the ATP probe from / binding to RIPK3 (in words)” value on RIPK3 kinase domain is reported as “not to displace the ATP probe”. Further, the equilibrium dissociation constant (Kd) at RIPK3 kinase domain (average of duplicates) and on RIPK1 kinase domain was above 30 µM throughout. For the same molecule, on RIPK1 kinase domain, the “displacement of the ATP probe from / binding to RIPK1 (in words)” value was “not to displace the ATP probe”. For the same molecule, the “displacement of the ATP probe from MLKL (in words)” value on full length MLKL (data not shown) was “not to displace the ATP probe”.

Take `CN1C(=O)C(Cc2c[nH]c3ccccc23)NC1=S` (stereo not shown) [Nec1s, Necrostatin, reference compound]: the “effect on cell viability in the absence of TNF stimulation (in words)” value in the data set on FADD (-/-) Jurkat cells [3] is listed as “does not effect cell viability”. In the data set with FADD (-/-) Jurkat cells [2] (Homo sapiens, TNF stimulation), the midpoint of the response, the EC50, lay at 500 nM.

`CC(=O)Nc1ccc(N(C)c2ccnc(Nc3cccc(S(N)(=O)=O)c3)n2)cc1` [cpd 2]: the figures for the ΔTm at 10 µM on kinase domain of RIPK1 and at pseudokinase MLKL-1 were 0 °C and 2.93 °C, respectively. In the data set on FADD (-/-) Jurkat cells [2] (Homo sapiens), the IC50 was above 40 µM. Besides, the “weaker potency to RIPK1 relative to MLKL” value on RIPK1 kinase domain is listed as “at least 10 fold”. In addition, the equilibrium dissociation constant (Kd) on RIPK1 kinase domain is above 10 µM; on full length MLKL it was 780 nM.

`CN(c1ccc(N)cc1)c1ccnc(Nc2cccc(S(N)(=O)=O)c2)n1` [cpd 3]: the ΔTm at 10 µM at kinase domain of RIPK1 turned out to be 0.31 °C; at pseudokinase MLKL-1, 1.57 °C. In the data set on FADD (-/-) Jurkat cells [2] (Homo sapiens), the IC50 was above 40 µM. On RIPK1 kinase domain, the “weaker potency to RIPK1 relative to MLKL” value is given as “at least 10 fold”. The Kd at RIPK1 kinase domain is above 10 µM; on full length MLKL, 880 nM.
